Measured values: US20050009061A1, “Anther-specific genes, their promoters, and uses of the same” (priority 2003, published 2005)

What was measured:
Assay type in all cases: in vivo, rice (Nipponbare)
Conditions in all cases: mRNA in rice leaf sheaths after hormone treatment, Northern blotting (FIG. 2)
[1] = test system: eight types of tubulin (β-tubulin mRNA expression in rice leaf sheaths); test: Northern blotting of hormone specificity in rice leaf sheaths, all eight β-tubulins
Protocol: (§1) After treatment with each hormone, Northern blotting using specific probes was performed to confirm the mRNA expression in rice leaf sheaths. C: No treatment; GA: gibberellin; BL: brassinolide; ABA: abscisic acid; IAA: auxin; BA: cytokinin.
(§2) Rice (variety: Nipponbare) was grown under conditions of 600 μmol/m^2s white fluorescent light at 25° C., 75% humidity, and under a twelve-hour day/night cycle. Commercially available high-grade gibberellin (GA3), brassinolide (BL), auxin (IAA), cytokinin (BA), and abscisic acid (ABA) were used. RNA for RNA blotting analysis was extracted using Chomczynski and Sacchi's method (Chomczynski, P. and Sacchi, N., 1987, Anal. Biochem., 162: 156-159). An oligotex-dT-30 mRNA purification kit (Takara) was used to prepare mRNA for microarray analysis.
(§3) Primers were constructed specifically for eight types of β-tubulin, respectively. PCR was carried out using each β-tubulin EST clone as a template, and using a T3 primer and a primer specific to the 3′-untranslated region of each β-tubulin. […]
(§4) About 0.5 g of tissue samples rapid frozen in liquid nitrogen was ground to a powder using a mortar and a pastle, and total RNA was prepared by the methods of Chomczynski and Sacchi (Chomczynski, P. and Sacchi, N., 1987, Anal. Biochem., 162: 156-159). […] The expression amount was analyzed using image analysis apparatus (Amersham Pharmacia Biotech).

OsTUB6 = test: Northern blotting of hormone specificity in rice leaf sheaths, OsTUB6
Protocol: as §1, §2, §3, §4

OsTUB5 = test: Northern blotting of hormone specificity in rice leaf sheaths, OsTUB5
Protocol: as §1, §2, §3, §4

OsTUB7 = test: Northern blotting of hormone specificity in rice leaf sheaths, OsTUB7
Protocol: as §1, §2, §3, §4

Row | Compound | expression of all eight types of tubulin [1] | expression of OsTUB6 (OsTUB6) | expression of OsTUB5 (OsTUB5) | expression of OsTUB7 (OsTUB7)
1 | CC1=CC(=O)CC(C)(C)[C@@]1(O)/C=C/C(C)=C\C(=O)O [abscisic acid] | suppressed |  |  | 
2 | CC(C)[C@H](C)[C@@H](O)[C@H](O)[C@@H](C)[C@H]1CC[C@H]2[C@@H]3COC(=O)[C@H]4C[C@H](O)[C@H](O)C[C@]4(C)[C@H]3CC[C@]12C [brassinolide] |  | increased | increased | increased
3 | gibberellin |  | markedly increased | markedly increased | markedly increased
